Data on three compounds can be found in US10375960B2, “Resin composition including insecticidal component” ([…] Control Consortium, priority 2015, dated 2019).

The test system of test [1] is Anopheles gambiae VK7-strain. The test is described as follows: Basic insecticidal activity, topical application method, pyrethroid-resistive strain (Test Example 4). Type of test: in vivo. As to conditions: for 50% Lethal Dose (LD50): pyrethroid-resistive female adults, topical application, mortality after 24 hours; for Relative Efficacy: relative to deltamethrin (=1), from LD50 values. How it is done:
(§1) The basic insecticidal activity of the present compound was examined using a topical application method. Various concentrations of acetone solutions of the present compound were previously prepared. […] After the treatment, the female adult of Cancer Vieja Madara mosquito was moved into a plastic cup (having a diameter of 9 cm and a height of about 4.5 cm), and was fed with 5% sugar water. The mortality after 24 hours was examined. The number of the tested female adults of Cancer Vieja Madara mosquito was 10 heads per each one concentration in four replicate experiments. The 50% lethal dose (the LD50 value) of the present compound was calculated from the test result using probit method. The same experiment was conducted using ethofenprox as a control. The lower 50% lethal dose of a compound means the higher basic insecticidal activity of the compound. The ratio of the LD50 value of the present compound relative to the LD50 value of ethofenprox was calculated to acquire the relative efficacy of the present compound to ethofenprox.
The basic insecticidal activity of each of the present compound and deltamethrin was examined using the same method as that used in Test Example 1. Here the tested female adults of Cancer Vieja Madara mosquito were pyrethroid-resistive female adults of Cancer Vieja Madara mosquito (Anopheles gambiae VK7-strain), and the number of the tested insects was 10 heads per each one concentration in two replicate experiments. The ratio of the LD50 value of the present compound relative to the LD50 value of deltamethrin was calculated to acquire the relative efficacy of the present compound to deltamethrin.

Test [2] has as its system Anopheles gambiae Kisumu-strain. The test is described as follows: Basic insecticidal activity, topical application method (Test Example 1). Type of test: in vivo. As to conditions: for 50% Lethal Dose (LD50): female adults, 0.3 μL acetone solution on thoracodorsal region, mortality after 24 hours, probit method; for Relative Efficacy: relative to ethofenprox (=1), from LD50 values. How it is done: as §1

In the case of `CC1(C)[C@H](C(=O)O[C@H](C#N)c2cccc(Oc3ccccc3)c2)[C@@H]1C=C(Br)Br` [Deltamethrin, deltamethrin], in test [1], the “50% Lethal Dose (LD50)” value is 0.00104 μg/female and the “Relative Efficacy” value stood at 1.
With `CCOc1ccc(C(C)(C)COCc2cccc(Oc3ccccc3)c2)cc1` [Ethofenprox, ethofenprox], in test [2], the “50% Lethal Dose (LD50)” value is listed as 0.0021 μg/female and the “Relative Efficacy” value is on record as 1.
As for `CCc1ncnc(NCCc2ccc(C(F)(F)F)cc2)c1Cl` [The present compound, 5-chloro-4-ethyl-6-[2-(4-trifluoromethylphenyl)ethylamino]pyrimidine], in test [2], the “50% Lethal Dose (LD50)” value is on record as 0.0094 μg/female and the “Relative Efficacy” value is 0.22. In test [1], the “50% Lethal Dose (LD50)” value was determined as 0.01833 μg/female and the “Relative Efficacy” value is on record as 0.05674.
